Patent publication US10934310B2, “Inhibitors of Bruton's tyrosine kinase and method of their use” (JANSSEN PHARMACEUTICA NV, priority 2015, dated 2021)

Each molecule was assayed against unphosphorylated-BTK kinase domain (UP-BTK), GST-tagged human BTK (389-659aa) (Homo sapiens (Human), UniProt Q06187) (assay: BTK Kinase Lanthascreen Binding Assay). Settings: compound, 50 nM Tracer 236, 2 nM anti-GST antibody, 60 minutes; pIC50 = negative log of the IC50 in molar.
Sequence of unphosphorylated-BTK kinase domain (UP-BTK), GST-tagged human BTK (389-659aa) (Q06187 389-659): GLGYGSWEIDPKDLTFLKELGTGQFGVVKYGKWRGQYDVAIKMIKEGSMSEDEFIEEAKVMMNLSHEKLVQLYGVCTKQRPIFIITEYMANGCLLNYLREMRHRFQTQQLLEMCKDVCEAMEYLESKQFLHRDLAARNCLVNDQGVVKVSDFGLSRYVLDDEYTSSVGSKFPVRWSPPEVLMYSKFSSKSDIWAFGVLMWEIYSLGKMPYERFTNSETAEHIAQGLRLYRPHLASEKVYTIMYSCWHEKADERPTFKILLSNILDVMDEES
Experimental: BTK Kinase Lanthascreen Binding Assay:
A BTK kinase lanthascreen binding assay monitors compound binding to unphosphorylated-BTK kinase domain (UP-BTK), by competing with a fluorescent labeled tracer. […] Data were analyzed using Xlfit™ version 5.3 from ID Business Solutions (Guildford), Microsoft Excel add-in. pIC50 refers to the negative log of the IC50 in molar.
For CCC(=O)N[C@@H]1CCC[C@@H]1NC(=O)c1sc2nccc3c2c1NC(=O)N3c1ccc(Oc2ccccc2)cc1C [Example 59, 5-(2-Methyl-4-phenoxyphenyl)-4-oxo-N-((1S,2R)-2-propionamidocyclopentyl)-4,5-dihydro-3H-1-thia-3,5,8-triazaacenaphthylene-2-carboxamide], the “BTK_I_binding pIC50” value was 5.46. CCC(=O)N[C@H]1CCCC[C@@H]1NC(=O)c1sc2nccc3c2c1NC(=O)N3c1ccc(Oc2ccccc2)cc1C [Example 60, 5-(2-Methyl-4-phenoxyphenyl)-4-oxo-N-((1S,2S)-2-propionamidocyclohexyl)-4,5-dihydro-3H-1-thia-3,5,8-triazaacenaphthylene-2-carboxamide] was tested, and the “BTK_I_binding pIC50” value was 5.40. For Cc1cc(Oc2ccccc2)ccc1N1C(=O)Nc2c(C(=O)N[C@H]3CCCC[C@@H]3N(C)C)sc3nccc1c23 [Example 62, N-((1S,2S)-2-(Dimethylamino)cyclohexyl)-5-(2-methyl-4-phenoxyphenyl)-4-oxo-4,5-dihydro-3H-1-thia-3,5,8-triazaacenaphthylene-2-carboxamide], the “BTK_I_binding pIC50” value was 5.29. CNC1CCC(NC(=O)c2sc3nccc4c3c2NC(=O)N4c2ccc(Oc3ccccc3)cc2C)CC1 (stereo not shown) [Example 63, 5-(2-Methyl-4-phenoxyphenyl)-N-(4-(methylamino)cyclohexyl)-4-oxo-4,5-dihydro-3H-1-thia-3,5,8-triazaacenaphthylene-2-carboxamide] was tested, and the “BTK_I_binding pIC50” value was 6.85. In the case of CC(=O)N[C@H]1CC[C@@H](NC(=O)c2sc3nccc4c3c2NC(=O)N4c2ccc(Oc3ccccc3)cc2C)CC1 [Example 64, N-((1S,4S)-4-Acetamidocyclohexyl)-5-(2-methyl-4-phenoxyphenyl)-4-oxo-4,5-dihydro-3H-1-thia-3,5,8-triazaacenaphthylene-2-carboxamide], the “BTK_I_binding pIC50” value is reported as 7.28. With CCC(=O)N[C@H]1CC[C@@H](NC(=O)c2sc3nccc4c3c2NC(=O)N4c2ccc(Oc3ccccc3)cc2C)CC1 [Example 65, 5-(2-Methyl-4-phenoxyphenyl)-4-oxo-N-((1S,4S)-4-propionamidocyclohexyl)-4,5-dihydro-3H-1-thia-3,5,8-triazaacenaphthylene-2-carboxamide] the “BTK_I_binding pIC50” value was 7.20. For Cc1cc(Oc2ccccc2)ccc1N1C(=O)Nc2c(C(=O)N[C@H]3CC[C@@H](N(C)C)CC3)sc3nccc1c23 [Example 66, N-((1S,4S)-4-(Dimethylamino)cyclohexyl)-5-(2-methyl-4-phenoxyphenyl)-4-oxo-4,5-dihydro-3H-1-thia-3,5,8-triazaacenaphthylene-2-carboxamide], the “BTK_I_binding pIC50” value was 6.56. With C=CC(=O)N[C@@H]1CC[C@H](NC(=O)c2sc3nccc4c3c2NC(=O)N4c2ccc(Oc3ccccc3)cc2C)C1 [Example 68, N-((1S,3R)-3-acrylamidocyclopentyl)-5-(2-methyl-4-phenoxyphenyl)-4-oxo-4,5-dihydro-3H-1-thia-3,5,8-triazaacenaphthylene-2-carboxamide] the “BTK_I_binding pIC50” value was 7.78. In the case of CCC(=O)N[C@@H]1CC[C@H](NC(=O)c2sc3nccc4c3c2NC(=O)N4c2ccc(Oc3ccccc3)cc2C)C1 [Example 69, 5-(2-Methyl-4-phenoxyphenyl)-4-oxo-N-((1S,3R)-3-propionamidocyclopentyl)-4,5-dihydro-3H-1-thia-3,5,8-triazaacenaphthylene-2-carboxamide], the “BTK_I_binding pIC50” value is reported as 7.73. For CC(=O)N[C@@H]1CC[C@H](NC(=O)c2sc3nccc4c3c2NC(=O)N4c2ccc(Oc3ccccc3)cc2C)C1 [Example 70, N-((1S,3R)-3-Acetamidocyclopentyl)-5-(2-methyl-4-phenoxyphenyl)-4-oxo-4,5-dihydro-3H-1-thia-3,5,8-triazaacenaphthylene-2-carboxamide], the “BTK_I_binding pIC50” value was 7.69. In the case of Cc1cc(Oc2ccccc2)ccc1N1C(=O)Nc2c(C(=O)N[C@H]3CC[C@@H](NC(=O)CN(C)C)C3)sc3nccc1c23 [Example 71, N-((1S,3R)-3-(2-(Dimethylamino)acetamido)cyclopentyl)-5-(2-methyl-4-phenoxyphenyl)-4-oxo-4,5-dihydro-3H-1-thia-3,5,8-triazaacenaphthylene-2-carboxamide], the “BTK_I_binding pIC50” value is reported as 7.38. CNCC(=O)N[C@@H]1CC[C@H](NC(=O)c2sc3nccc4c3c2NC(=O)N4c2ccc(Oc3ccccc3)cc2C)C1 [Example 72, 5-(2-Methyl-4-phenoxyphenyl)-N-((1S,3R)-3-(2-(methylamino)acetamido)cyclopentyl)-4-oxo-4,5-dihydro-3H-1-thia-3,5,8-triazaacenaphthylene-2-carboxamide] was tested, and the “BTK_I_binding pIC50” value was 7.02. In the case of Cc1cc(Oc2ccccc2)ccc1N1C(=O)Nc2c(C(=O)N[C@H]3CC[C@@H](N(C)C)C3)sc3nccc1c23 [Example 73, N-((1S,3R)-3-(Dimethylamino)cyclopentyl)-5-(2-methyl-4-phenoxyphenyl)-4-oxo-4,5-dihydro-3H-1-thia-3,5,8-triazaacenaphthylene-2-carboxamide], the “BTK_I_binding pIC50” value is reported as 7.00. In the case of Cc1cc(Oc2ccccc2)ccc1N1C(=O)Nc2c(C(=O)N[C@H]3CC[C@@H](O)C3)sc3nccc1c23 [Example 74, N-((1S,3R)-3-Hydroxycyclopentyl)-5-(2-methyl-4-phenoxyphenyl)-4-oxo-4,5-dihydro-3H-1-thia-3,5,8-triazaacenaphthylene-2-carboxamide], the “BTK_I_binding pIC50” value is reported as 7.07. For Cc1cc(Oc2ccccc2)ccc1N1C(=O)Nc2c(C(=O)N[C@H]3CC[C@@H](NC(=O)CN)C3)sc3nccc1c23 [Example 75, N-((1S,3R)-3-(2-Aminoacetamido)cyclopentyl)-5-(2-methyl-4-phenoxyphenyl)-4-oxo-4,5-dihydro-3H-1-thia-3,5,8-triazaacenaphthylene-2-carboxamide], the “BTK_I_binding pIC50” value was 7.30. With Cc1cc(Oc2ccccc2)ccc1N1C(=O)Nc2c(C(=O)N[C@H]3CC[C@@H](N)C3)sc3nccc1c23 [Example 76, N-((1S,3R)-3-Aminocyclopentyl)-5-(2-methyl-4-phenoxyphenyl)-4-oxo-4,5-dihydro-3H-1-thia-3,5,8-triazaacenaphthylene-2-carboxamide] the “BTK_I_binding pIC50” value was 6.88. For Cc1cc(Oc2ccccc2)ccc1N1C(=O)Nc2c(C(=O)N[C@H]3CC[C@@H](NC(=O)/C=C/CN(C)C)CC3)sc3nccc1c23 [Example 77, N-((1S,4S)-4-((E)-4-(Dimethylamino)but-2-enamido)cyclohexyl)-5-(2-methyl-4-phenoxyphenyl)-4-oxo-4,5-dihydro-3H-1-thia-3,5,8-triazaacenaphthylene-2-carboxamide], the “BTK_I_binding pIC50” value was 6.61. For CNC/C=C/C(=O)N[C@H]1CC[C@@H](NC(=O)c2sc3nccc4c3c2NC(=O)N4c2ccc(Oc3ccccc3)cc2C)CC1 [Example 78, 5-(2-Methyl-4-phenoxyphenyl)-N-((1S,4S)-4-((E)-4-(methylamino)but-2-enamido)cyclohexyl)-4-oxo-4,5-dihydro-3H-1-thia-3,5,8-triazaacenaphthylene-2-carboxamide], the “BTK_I_binding pIC50” value was 6.55. Cc1cc(Oc2ccccc2)ccc1N1C(=O)Nc2c(C(=O)N[C@H]3CC[C@@H](NC(=O)/C=C/CN)CC3)sc3nccc1c23 [Example 79, N-((1S,4S)-4-((E)-4-Aminobut-2-enamido)cyclohexyl)-5-(2-methyl-4-phenoxyphenyl)-4-oxo-4,5-dihydro-3H-1-thia-3,5,8-triazaacenaphthylene-2-carboxamide] was tested, and the “BTK_I_binding pIC50” value was 6.47.
